Measurements as given in patent US20250179167A1, “IL-6 INHIBITOR AS TREATMENT FOR NEPHROPATHY” (YALE UNIVERSITY, priority 2022, published 2025).

Test system: UUO mice
Assay: Wnt inhibitor (LGK974) treatment in UUO mice, renal histology, GR and β-catenin
Assay type: in vivo, mouse
Procedure: FIG. 24A-24J show inhibition of Wnt signaling abolished the fibrogenic phenotype in mice. (FIG. 24A) Immunohistochemical analysis of -catenin expression in the kidneys of control and diabetic CD-1 and C57BL/6 mice. n=8 biologically independent mice/group combined from two independent experiments were evaluated. Scale bar 50 μm. Representative images are shown; original magnification 200×. (FIG. 24B) Relative mRNA expression determined by qRT-PCR of Axin2, Tcf and fibronectin, in kidneys of control and diabetic CD-1 and C57BL/6 mice. n=6 biologically independent mice/group combined from two experiments were evaluated. Expression was normalized to the internal control 18S. (FIG. 24C) Schematic diagram representing the treatment protocol of Wnt inhibitor (LGK974; 5 mg/kg body weight) in diabetic CD-1 mice and (FIG. 24D) in UUO mice. (FIG. 24E) Masson trichrome and Sirius red staining in the kidneys of diabetic and Wnt inhibitor-treated diabetic CD-1 mice. Representative images (original magnification 300×) are shown. Relative area of fibrosis (%) and relative collagen deposition (%) were measured using the ImageJ program. n=8 biologically independent mice/group combined from two experiments were evaluated. Scale bar 50 μm. (FIG. 24F) Masson trichrome and Sirius red staining in the kidneys of UUO and Wnt inhibitor-treated UUO mice. Representative images (original magnification 300×) are shown. Relative area of fibrosis (%) and relative collagen deposition (%) were measured using the ImageJ program. n=8 biologically independent mice/group combined from two experiments were evaluated. Scale bar 50 μm. (FIGS. 24G-24H) GR protein levels in CD31-positive cells were analyzed by immunofluorescence in the kidneys of Wnti-treated diabetic mice and Wnti-treated UUO mice. FITC-labeled GR, rhodamine-labeled CD31 and DAPI were used. Merged images and representative pictures are shown; original magnification 300×. n=7 biologically independent mice/group combined from four experiments were evaluated. Scale bar 50 μm. (FIGS. 24I-24J) Immunohistochemical analysis of active -catenin expression in Wnti-treated diabetic mice and Wnti-treated UUO mice. n=7 biologically independent mice/group combined from three experiments were evaluated. Scale bar 30 μm. Data are mean SEM. In all panels, one-way Anova with Tukey multiple comparison post hoc test was used to calculate statistical significance. Significance—*p<0.05, **p<0.01, ***p<0.001.
Mouse model of unilateral ureteral obstruction (UUO). UUO surgical procedure was performed as previously described^19. Briefly, mice were anesthetized with isoflurane (3%-5% for induction and 1%-3% for maintenance). Mice were shaved on the left side of the abdomen, a vertical incision was made through the skin with a scalpel, and the skin was retracted. A second incision was made through the peritoneum to expose the kidney. The left ureter was ligated twice […] below the renal pelvis with surgical silk, and the ureter was then severed between the 2 ligatures. Then, the ligated kidney was placed gently back into its correct anatomical position, and sterile saline was added to replenish loss of fluid. The incisions were sutured and mice were individually caged. Buprenorphine was used as an analgesic. The first dose was administered 30 minutes before surgery and then every 12 h for 72 h, at a dose of 0.05 mg/kg subcutaneously. Mice were sacrificed and kidney and blood samples were harvested after perfusion with PBS at 10 days after UUO. Contralateral kidneys were used as a nonfibrotic control for all experiments using this model.
Morphological Evaluation. A point-counting method was utilized to evaluate the relative area of the mesangial matrix. The inventors analyzed PAS-stained glomeruli from each mouse using a digital microscope screen grid containing 540 (27×20) points. Masson's trichrome-stained images were evaluated by ImageJ software, and the fibrotic areas were estimated.
Sirius red staining. […]

SMILES: Cc1cc(-c2ncc(CC(=O)Nc3ccc(-c4cnccn4)cn3)cc2C)ccn1 [LGK974]
- ECM deposition (5 mg/kg): greatly diminished
- collagen accumulation (5 mg/kg): greatly diminished
- glomerulosclerosis (5 mg/kg): greatly diminished
- relative area of fibrosis (5 mg/kg): greatly diminished
- level of β-catenin (kidney immunohistochemistry): suppressed the level of β-catenin
- endothelial GR (kidney, GR in CD31-positive cells): substantially restored endothelial GR
